Test results as given in BindingDB's records for patent US117808 (H. Lundbeck, 2023).
Where “and” joins values, the source holds several entries; their conditions need not be identical. Equal values may be shown once.

Experiments:
[1] = molecular target: Leucine-rich repeat serine/threonine-protein kinase 2 [G2019S] (Homo sapiens, UniProt Q5S007, G2019S); assay: LRRK2 Wild-Type and G2019S Kinase Activity Assay
Procedure: (§1) The LRRK2 kinase was obtained from Invitrogen (Life Technologies Corporation) and comprises residue 970 to 2527 of the full length human wild-type LRRK2 kinase, or a similar sequence with the G2019S mutation. As discussed above, this mutation increases the kinase activity relative to the wild type. The kinase reactions were performed in a 20 uL volume in 384-well plates. The kinase reaction buffer consisted of 50 mM Tris pH 8.5, 0.01% BRIJ-35, 10 mM MgCl2, 1 mM EGTA, and 2 mM DTT.In the assay, 1 nM LRRK2 WT or 250 pM LRRK2 G2019S kinase in kinase reaction buffer was incubated with the test compound (typically at 0 to 30 uM) for 30 minutes before the kinase reaction was initiated by addition of 1.3 mM ATP and 0.4 uM fluorescein-LRRKtide. The reaction mixture (20 ul total volume) was incubated for 3.5 h (for LRRK2 WT) and 3 h (for LRRK2 G2019S) at 30 C., before the reaction was terminated by addition of 10 mM EDTA and 1 nM terbium-labelled anti-phospho-LRRKtide antibody (final volume […]). The mixture was further incubated for 30 minutes at RT. TR-FRET was measured by excitation of the terbium-donor with 340 nm light and subsequent (delay time 100 us) measurement of terbium and fluorescein emission at 495 nm and 520 nm, respectively, over a time window of 1000 us. The measurement was repeated 30 times for fluorescein and 30 times for terbium emission with a 1000 us time window between repeats. TR-FRET measurements were performed on a Biotek Synergy plate. The TR-FRET signal was calculated as the emission-ratio at 520 nm over 495 nm.

[2] = molecular target: Leucine-rich repeat serine/threonine-protein kinase 2 (Homo sapiens, UniProt Q5S007); assay: LRRK2 Wild-Type and G2019S Kinase Activity Assay
Leucine-rich repeat serine/threonine-protein kinase 2, sequence (Q5S007 whole entry): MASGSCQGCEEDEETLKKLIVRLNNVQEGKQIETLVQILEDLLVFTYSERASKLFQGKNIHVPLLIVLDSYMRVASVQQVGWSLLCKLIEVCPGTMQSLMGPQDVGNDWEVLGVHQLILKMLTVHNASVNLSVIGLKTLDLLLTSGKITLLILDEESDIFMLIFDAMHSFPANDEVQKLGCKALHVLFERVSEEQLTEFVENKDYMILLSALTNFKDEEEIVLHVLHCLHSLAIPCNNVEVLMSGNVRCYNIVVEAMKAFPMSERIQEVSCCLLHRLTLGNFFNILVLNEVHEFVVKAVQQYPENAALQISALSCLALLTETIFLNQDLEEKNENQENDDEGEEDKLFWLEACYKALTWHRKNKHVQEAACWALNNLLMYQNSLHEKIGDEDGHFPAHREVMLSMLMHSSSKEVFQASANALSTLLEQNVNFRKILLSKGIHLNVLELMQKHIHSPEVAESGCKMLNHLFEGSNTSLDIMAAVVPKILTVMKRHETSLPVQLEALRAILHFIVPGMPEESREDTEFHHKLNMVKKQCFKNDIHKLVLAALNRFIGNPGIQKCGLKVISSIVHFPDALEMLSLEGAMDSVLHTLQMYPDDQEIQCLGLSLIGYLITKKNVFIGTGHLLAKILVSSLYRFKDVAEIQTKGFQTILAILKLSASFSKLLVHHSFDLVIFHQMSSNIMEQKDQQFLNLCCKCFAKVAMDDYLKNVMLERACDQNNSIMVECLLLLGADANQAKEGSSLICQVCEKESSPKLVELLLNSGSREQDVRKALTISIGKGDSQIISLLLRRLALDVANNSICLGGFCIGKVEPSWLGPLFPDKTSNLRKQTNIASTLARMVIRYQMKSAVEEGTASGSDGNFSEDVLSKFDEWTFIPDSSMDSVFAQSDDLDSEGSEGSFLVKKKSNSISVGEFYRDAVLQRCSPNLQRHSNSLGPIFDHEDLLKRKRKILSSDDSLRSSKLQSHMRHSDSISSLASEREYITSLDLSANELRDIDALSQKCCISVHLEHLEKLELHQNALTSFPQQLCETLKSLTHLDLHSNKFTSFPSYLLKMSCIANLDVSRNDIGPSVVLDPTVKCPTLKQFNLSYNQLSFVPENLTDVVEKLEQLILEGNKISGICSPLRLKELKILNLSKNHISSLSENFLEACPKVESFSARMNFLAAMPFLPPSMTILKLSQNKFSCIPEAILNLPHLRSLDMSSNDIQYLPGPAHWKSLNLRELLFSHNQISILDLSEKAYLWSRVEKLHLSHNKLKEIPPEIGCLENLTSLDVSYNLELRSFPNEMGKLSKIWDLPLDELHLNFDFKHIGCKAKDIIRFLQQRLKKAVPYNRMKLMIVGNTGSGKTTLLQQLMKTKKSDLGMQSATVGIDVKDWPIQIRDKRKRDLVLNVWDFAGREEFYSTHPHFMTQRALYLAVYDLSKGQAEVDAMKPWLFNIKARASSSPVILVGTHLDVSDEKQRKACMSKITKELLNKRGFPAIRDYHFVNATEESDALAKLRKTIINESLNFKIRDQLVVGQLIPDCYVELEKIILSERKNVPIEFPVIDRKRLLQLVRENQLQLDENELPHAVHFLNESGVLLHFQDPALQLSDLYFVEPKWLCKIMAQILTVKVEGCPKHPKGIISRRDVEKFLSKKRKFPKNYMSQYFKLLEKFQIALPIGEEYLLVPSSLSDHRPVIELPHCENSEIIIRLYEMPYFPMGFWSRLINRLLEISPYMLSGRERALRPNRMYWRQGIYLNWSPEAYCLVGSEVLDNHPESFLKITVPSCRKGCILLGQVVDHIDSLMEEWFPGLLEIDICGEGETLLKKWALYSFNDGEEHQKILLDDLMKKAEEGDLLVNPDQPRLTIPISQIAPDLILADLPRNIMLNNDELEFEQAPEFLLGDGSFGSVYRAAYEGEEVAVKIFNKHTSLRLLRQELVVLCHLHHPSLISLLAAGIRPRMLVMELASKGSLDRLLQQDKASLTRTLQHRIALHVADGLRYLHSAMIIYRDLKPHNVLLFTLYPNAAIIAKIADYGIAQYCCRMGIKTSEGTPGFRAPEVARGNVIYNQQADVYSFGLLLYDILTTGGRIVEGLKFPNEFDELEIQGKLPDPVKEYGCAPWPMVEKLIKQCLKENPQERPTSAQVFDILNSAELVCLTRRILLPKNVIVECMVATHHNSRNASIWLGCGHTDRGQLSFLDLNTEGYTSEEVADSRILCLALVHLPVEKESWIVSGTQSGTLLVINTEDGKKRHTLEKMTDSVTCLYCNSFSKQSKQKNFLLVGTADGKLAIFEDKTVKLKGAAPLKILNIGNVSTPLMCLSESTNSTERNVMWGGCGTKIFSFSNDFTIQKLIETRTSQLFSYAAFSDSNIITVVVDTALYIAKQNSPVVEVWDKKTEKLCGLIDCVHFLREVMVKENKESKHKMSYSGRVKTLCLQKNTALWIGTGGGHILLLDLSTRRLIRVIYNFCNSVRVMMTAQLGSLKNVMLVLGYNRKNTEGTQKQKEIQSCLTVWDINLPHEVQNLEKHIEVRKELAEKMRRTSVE
Procedure: as §1

Leucine-rich repeat serine/threonine-protein kinase 2 [G2019S], sequence (Q5S007 whole entry G2019S): as the sequence (Q5S007 whole entry) above, with G2019S counted along it

IC50 [1] | IC50 [2] | SMILES
3.9 nM | 13 nM | Cc1c2c(nn1[C@@H]1CCO[C@@H](C)C1)OCCCn1nc(Cl)c3cnc(nc31)N2 [US11780851, Example 19]
3.5 nM | 10 nM | Cc1c2c(nn1[C@@H]1CCOC[C@H]1C)OCCCn1nc(Cl)c3cnc(nc31)N2 [US11780851, Example 22]
20 nM | 44 nM | Cc1c2c(nn1[C@H]1CCOC[C@@H]1C)OCCCn1nc(Cl)c3cnc(nc31)N2 [US11780851, Example 23]
7.3 nM and 4.3 nM | 25 nM and 14 nM | Cc1c2c(nn1[C@@H]1CCCCOC1)OCCCn1nc(Cl)c3cnc(nc31)N2 [US11780851, Example 29]
4 nM | 12 nM | Cc1c2c(nn1C1CCCCOC1)OCCCn1nc(Cl)c3cnc(nc31)N2 (centres undefined) [US11780851, Example 30]
2.4 nM | 5.6 nM | Cc1c2c(nn1[C@H]1CCOC[C@@H]1F)OCCCn1nc(Cl)c3cnc(nc31)N2 [US11780851, Example 31]
5.9 nM | 18 nM | Cc1c2c(nn1C13CC(C(N)=O)(C1)C3)OCCCn1nc(Cl)c3cnc(nc31)N2 [US11780851, Example 33]
7.2 nM | 23 nM | Cc1c2c(nn1C1(C(N)=O)CC1)OCCCn1nc(Cl)c3cnc(nc31)N2 [US11780851, Example 36]
11 nM | 28 nM | Cc1c2c(nn1C1C3COCC31)OCCCn1nc(Cl)c3cnc(nc31)N2 (centres undefined) [US11780851, Example 38]
6.4 nM | 17 nM | Cc1c([N+](=O)[O-])c(OCCCn2nc(Cl)c3cnc(Cl)nc32)nn1[C@H]1C[C@@H](C)O[C@@H](C)C1 [US11780851, Example 41]
18 nM | 90 nM | Cc1c2c(nn1C1CCOC[C@]1(C)F)OCCCn1nc(Cl)c3cnc(nc31)N2 (some centres undefined) [US11780851, Example 48]
0.88 nM | 2.6 nM | Cc1c2c(nn1[C@H]1CCOC3(CC3)C1)OCCCn1nc(Cl)c3cnc(nc31)N2 [US11780851, Example 54]
1.5 nM | 5.6 nM | CCc1c2c(nn1[C@@H]1CCOCC1F)OCCCn1nc(Cl)c3cnc(nc31)N2 (some centres undefined) [US11780851, Example 55]

The remaining lines, values behind:

SMILES | IC50 [1] | IC50 [2]
Cc1c2c(nn1[C@H]1CCCOC1)OCCCn1nc(Cl)c3cnc(nc31)N2 (single isomer, unassigned) [US11780851, Example 60] | 9 nM | 25 nM
Cc1c2c(nn1C1CCOCC1)OCCCn1nc(Br)c3cnc(nc31)N2 [US11780851, Example 6] | 2.2 nM | 8 nM
Cc1c2c(nn1CC1(C)COC1)OCCCn1nc(Cl)c3cnc(nc31)N2 [US11780851, Example 12] | 12 nM | 32 nM
Cc1c([N+](=O)[O-])c(OCCCn2nc(Cl)c3cnc(Cl)nc32)nn1C1CCOCC1 [US11780851, Example 15] | – | 9.6 nM and 6.8 nM
Cc1c2c(nn1C1CCOCC1)OCCCn1nc(Cl)c3cnc(nc31)N2 [US11780851, Example 20] | 2.4 nM | 9.8 nM
Cc1c2c(nn1[C@H]1CCOC[C@H]1C)OCCCn1nc(Cl)c3cnc(nc31)N2 [US11780851, Example 21] | 3.7 nM | 10 nM
Cc1c2c(nn1[C@@H]1CCOC[C@@H]1F)OCCCn1nc(Cl)c3cnc(nc31)N2 [US11780851, Example 32] | 6.1 nM | 15 nM
Cc1c2c(nn1C1CC1(F)F)OCCCn1nc(Cl)c3cnc(nc31)N2 (centres undefined) [US11780851, Example 39] | 7.8 nM | 19 nM
Cc1c2c(nn1[C@H]1CC1(F)F)OCCCn1nc(Cl)c3cnc(nc31)N2 [US11780851, Example 40] | 12 nM | 28 nM
Cc1c2c(nn1[C@@H]1CCOC(C)(C)C1)OCCCn1nc(Cl)c3cnc(nc31)N2 [US11780851, Example 43] | 5.3 nM | 17 nM
Cc1c2c(nn1C1CC3CCC(C1)O3)OCCCn1nc(Cl)c3cnc(nc31)N2 (centres undefined) [US11780851, Example 44] | 4.3 nM | 13 nM
Cc1c2c(nn1C1CCOC[C@@]1(C)F)OCCCn1nc(Cl)c3cnc(nc31)N2 (some centres undefined) [US11780851, Example 47] | 3.1 nM | 13 nM
CO[C@H]1CC[C@H](n2nc3c(c2Br)Nc2ncc4c(Cl)nn(c4n2)CCCO3)CC1 [US11780851, Example 50] | 5.3 nM | 10 nM
Cc1c2c(nn1[C@H]1CCO[C@@H](C)C1)OCCCn1nc(Cl)c3cnc(nc31)N2 [US11780851, Example 51] | 3.6 nM | 11 nM
Cc1c2c(nn1[C@@H]1CCO[C@H](C)C1)OCCCn1nc(Cl)c3cnc(nc31)N2 [US11780851, Example 52] | 10 nM | 19 nM
CCc1c2c(nn1[C@H]1CCOCC1F)OCCCn1nc(Cl)c3cnc(nc31)N2 (some centres undefined) [US11780851, Example 56] | 2 nM | 4.9 nM
Cc1c2c(nn1[C@@H]1CCCOCC1)OCCCn1nc(Cl)c3cnc(nc31)N2 [US11780851, Example 59] | 6.2 nM | 17 nM
Cc1c2c(nn1[C@@H]1CCCOC1)OCCCn1nc(Cl)c3cnc(nc31)N2 [US11780851, Example 61] | 2.2 nM | 9.2 nM
F[C@@H]1COCC[C@H]1n1nc2c(c1Br)Nc1ncc3c(Cl)nn(c3n1)CCCO2 [US11780851, Example 62] | 5.9 nM | 17 nM
F[C@H]1COCC[C@@H]1n1nc2c(c1Br)Nc1ncc3c(Cl)nn(c3n1)CCCO2 [US11780851, Example 63] | 4 nM | 11 nM
Clc1nn2c3nc(ncc13)Nc1c(nn([C@H]3CCOC4(CC4)C3)c1Br)OCCC2 [US11780851, Example 64] | 5 nM | 11 nM
Clc1nn2c3nc(ncc13)Nc1c(nn([C@@H]3CCOC4(CC4)C3)c1Br)OCCC2 [US11780851, Example 65] | 1.7 nM | 4.8 nM
